Measured values published in BindingDB's records for doi:10.1016/j.ejmech.2010.08.026 (Instituto De Parasitología Y Biomedicina …, 2010).

Target: T1, Purine nucleoside phosphorylase (Plasmodium falciparum, UniProt Q8T9Z7)
T1 sequence (Q8T9Z7 whole entry): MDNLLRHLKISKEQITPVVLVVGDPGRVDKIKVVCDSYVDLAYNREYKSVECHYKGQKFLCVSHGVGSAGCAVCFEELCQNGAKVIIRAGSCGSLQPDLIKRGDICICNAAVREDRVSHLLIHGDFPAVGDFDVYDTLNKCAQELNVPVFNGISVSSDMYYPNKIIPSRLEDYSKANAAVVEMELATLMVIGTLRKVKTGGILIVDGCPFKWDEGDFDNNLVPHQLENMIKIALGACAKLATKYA
Experiment: Inhibition of Plasmodium falciparum PNP expressed in Escherichia coli BL21(DE3) cells by spectrophotometry

Work on `O=c1[nH]c(O)c(Cc2ccccc2)c(=O)[nH]1` [5-benzylpyrimidine-2,4,6(1H,3H,5H)-trione] yielded an IC50 greater than 1 mM.
